Several values for one entry are separate records, joined by “and”; a condition that tells them apart may be missing. Identical values can stand only once.
Tests used:
[1] = molecular target: T1, recombinant full-length AR (Homo sapiens, UniProt P10275); experiment: Cell-free binding to recombinant full-length AR; settings: 16 hours at room temperature
T1 sequence (P10275 1-920): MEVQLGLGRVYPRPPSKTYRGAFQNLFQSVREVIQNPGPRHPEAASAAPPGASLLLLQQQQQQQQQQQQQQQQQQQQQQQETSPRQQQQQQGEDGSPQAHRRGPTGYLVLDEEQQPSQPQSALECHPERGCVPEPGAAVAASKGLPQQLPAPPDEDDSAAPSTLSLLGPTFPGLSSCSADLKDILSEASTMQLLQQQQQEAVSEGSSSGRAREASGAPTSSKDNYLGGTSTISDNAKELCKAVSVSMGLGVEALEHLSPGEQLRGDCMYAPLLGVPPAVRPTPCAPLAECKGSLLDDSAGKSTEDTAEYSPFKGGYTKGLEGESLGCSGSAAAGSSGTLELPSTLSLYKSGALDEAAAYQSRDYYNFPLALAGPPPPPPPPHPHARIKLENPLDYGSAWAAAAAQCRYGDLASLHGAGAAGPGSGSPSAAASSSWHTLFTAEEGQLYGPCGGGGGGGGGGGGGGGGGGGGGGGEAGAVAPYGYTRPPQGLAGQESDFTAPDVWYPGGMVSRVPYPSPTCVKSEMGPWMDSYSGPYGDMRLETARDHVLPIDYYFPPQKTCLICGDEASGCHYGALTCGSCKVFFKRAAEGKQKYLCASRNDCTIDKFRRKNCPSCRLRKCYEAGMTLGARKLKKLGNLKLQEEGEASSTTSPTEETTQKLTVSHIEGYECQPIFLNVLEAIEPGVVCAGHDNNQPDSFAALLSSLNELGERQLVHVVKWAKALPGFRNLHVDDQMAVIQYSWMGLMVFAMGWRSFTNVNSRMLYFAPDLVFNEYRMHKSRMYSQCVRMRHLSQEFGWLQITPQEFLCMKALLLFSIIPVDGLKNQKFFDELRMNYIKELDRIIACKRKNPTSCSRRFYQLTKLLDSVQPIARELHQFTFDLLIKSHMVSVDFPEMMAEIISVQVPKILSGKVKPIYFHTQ

endogenous AR = experiment: Binding to endogenous AR in LNCaP95 cells; type: cell-based, human; settings: 16 hours
[2] = In vivo biodistribution in mice bearing LNCaP95 and PC3 xenografts; set-up: species or system male castrated NOD/SCID mice
[3] = Biodistribution with blocking by excess cold EPI-002; type: in vivo, male castrated NOD/SCID mice; settings: excess cold EPI-002 50 mg/kg body weight; 1 hour
[4] = Micro-SPECT/CT imaging of mice bearing LNCaP95 and PC3 xenografts; type: in vivo, male castrated NOD/SCID mice

In the case of [^123I]15-iodoEPI002 [^123I-EPI-002], the “binding to recombinant full-length AR” value [1] is reported as “binds to recombinant full-length AR”, the “binding to endogenous AR in LNCaP95 cells” value (endogenous AR) is reported as “binds covalently and specifically to AR” and the Bladder uptake ([2]; 0 h after injection) is reported as 0.79 ± 0.49 %ID/g. The Blood uptake ([2]; 0 h after injection) was 12.57 ± 2.03 %ID/g, the Bone uptake ([2]; 0 h after injection) was 1.09 ± 0.75 %ID/g and the Brain uptake ([2]; 0 h after injection) was 1.29 ± 0.55 %ID/g. The Heart uptake ([2]; 0 h after injection) was 7.62 ± 1.86 %ID/g, the Kidney uptake ([2]; 0 h after injection) was 5.57 ± 2.37 %ID/g and the Large intestine uptake ([2]; 0 h after injection) was 0.70 ± 0.42 %ID/g. The Liver uptake ([2]; 0 h after injection) was 5.03 ± 3.29 %ID/g, the Lung uptake ([2]; 0 h after injection) was 5.19 ± 1.59 %ID/g and the Muscle uptake ([2]; 0 h after injection) was 1.60 ± 1.89 %ID/g. The “Negative tumor (PC3) uptake” value ([2]; 0 h after injection) was 0.19 ± 0.06 %ID/g, the “Positive tumor (LNCaP95) uptake” value ([2]; 0 h after injection) was 0.17 ± 0.06 %ID/g and the “Ratio LNCaP95/PC3” value ([2]; 0 h after injection) was 0.9. For the same substance, the “Ratio LNCaP95/blood” value ([2]; 0 h after injection) was 0.01, the “Ratio LNCaP95/kidney” value ([2]; 0 h after injection) was 0.03 and the “Ratio LNCaP95/liver” value ([2]; 0 h after injection) was 0.04. The “Ratio LNCaP95/muscle” value ([2]; 0 h after injection) was 0.22, the Small intestine uptake ([2]; 0 h after injection) was 2.44 ± 1.05 %ID/g and the Spleen uptake ([2]; 0 h after injection) was 1.15 ± 1.04 %ID/g. For the same substance, the Stomach uptake ([2]; 0 h after injection) was 1.80 ± 1.60 %ID/g, the Bladder uptake ([2]; 1 h after injection) was 1.47 ± 0.65 %ID/g and the Blood uptake ([2]; 1 h after injection) was 0.74 ± 0.30 %ID/g. For the same substance, the Bone uptake ([2]; 1 h after injection) was 1.03 ± 0.31 %ID/g, the Brain uptake ([2]; 1 h after injection) was 1.68 ± 0.67 %ID/g and the Gallbladder uptake ([2]; 1 h after injection) was 10.09 ± 6.60 %ID/g. It also gave a Heart uptake ([2]; 1 h after injection) of 2.25 ± 0.50 %ID/g, a Kidney uptake ([2]; 1 h after injection) of 3.07 ± 0.90 %ID/g and a Large intestine uptake ([2]; 1 h after injection) of 1.22 ± 0.34 %ID/g. It also gave a Liver uptake ([2]; 1 h after injection) of 7.76 ± 0.95 %ID/g, a Lung uptake ([2]; 1 h after injection) of 2.40 ± 1.01 %ID/g and a Muscle uptake ([2]; 1 h after injection) of 1.34 ± 0.40 %ID/g. The “Ratio LNCaP95/PC3” value ([2]; 1 h after injection) was 3.2, the “Ratio LNCaP95/blood” value ([2]; 1 h after injection) was 3.58 ± 0.66 and 3.58 and the “Ratio LNCaP95/kidney” value ([2]; 1 h after injection) was 0.71. For the same substance, the “Ratio LNCaP95/liver” value ([2]; 1 h after injection) was 0.29, the “Ratio LNCaP95/muscle” value ([2]; 1 h after injection) was 1.72 and the Small intestine uptake ([2]; 1 h after injection) was 7.43 ± 5.25 %ID/g. It also gave a Spleen uptake ([2]; 1 h after injection) of 0.96 ± 0.23 %ID/g, a Stomach uptake ([2]; 1 h after injection) of 1.73 ± 0.69 %ID/g and a Bladder uptake ([2]; 2 h after injection) of 1.13 ± 0.55 %ID/g. For the same substance, the Blood uptake ([2]; 2 h after injection) was 0.31 ± 0.08 %ID/g, the Bone uptake ([2]; 2 h after injection) was 0.51 ± 0.11 %ID/g and the Brain uptake ([2]; 2 h after injection) was 0.83 ± 0.21 %ID/g. For the same substance, the Gallbladder uptake ([2]; 2 h after injection) was 2.12 ± 3.60 %ID/g, the Heart uptake ([2]; 2 h after injection) was 1.04 ± 0.22 %ID/g and the Kidney uptake ([2]; 2 h after injection) was 1.43 ± 0.58 %ID/g. For the same substance, the Large intestine uptake ([2]; 2 h after injection) was 1.90 ± 2.02 %ID/g, the Liver uptake ([2]; 2 h after injection) was 4.81 ± 1.13 %ID/g and the Lung uptake ([2]; 2 h after injection) was 0.78 ± 0.19 %ID/g. For the same substance, the Muscle uptake ([2]; 2 h after injection) was 0.49 ± 0.18 %ID/g, the “Negative tumor (PC3) uptake” value ([2]; 2 h after injection) was 0.35 ± 0.14 %ID/g and the “Positive tumor (LNCaP95) uptake” value ([2]; 2 h after injection) was 1.13 ± 0.16 %ID/g. The “Ratio LNCaP95/PC3” value ([2]; 2 h after injection) was 3.3, the “Ratio LNCaP95/blood” value ([2]; 2 h after injection) was 3.74 and the “Ratio LNCaP95/kidney” value ([2]; 2 h after injection) was 0.96. For the same substance, the “Ratio LNCaP95/liver” value ([2]; 2 h after injection) was 0.24, the “Ratio LNCaP95/muscle” value ([2]; 2 h after injection) was 2.51 and the Small intestine uptake ([2]; 2 h after injection) was 6.29 ± 3.72 %ID/g. For the same substance, the Spleen uptake ([2]; 2 h after injection) was 0.71 ± 0.34 %ID/g, the Stomach uptake ([2]; 2 h after injection) was 0.68 ± 0.31 %ID/g and the Bladder uptake ([2]; 4 h after injection) was 0.52 ± 0.17 %ID/g. It also gave a Blood uptake ([2]; 4 h after injection) of 0.25 ± 0.07 %ID/g, a Bone uptake ([2]; 4 h after injection) of 0.39 ± 0.13 %ID/g and a Brain uptake ([2]; 4 h after injection) of 0.55 ± 0.18 %ID/g. The Gallbladder uptake ([2]; 4 h after injection) was 0.35 ± 0.03 %ID/g, the Heart uptake ([2]; 4 h after injection) was 0.88 ± 0.18 %ID/g and the Kidney uptake ([2]; 4 h after injection) was 1.05 ± 0.11 %ID/g. The Large intestine uptake ([2]; 4 h after injection) was 66 %ID/g and 66.53 ± 34.05 %ID/g, the Liver uptake ([2]; 4 h after injection) was 4.30 ± 0.68 %ID/g and the Lung uptake ([2]; 4 h after injection) was 0.75 ± 0.24 %ID/g. For the same substance, the Muscle uptake ([2]; 4 h after injection) was 0.45 ± 0.13 %ID/g, the “Negative tumor (PC3) uptake” value ([2]; 4 h after injection) was 0.50 ± 0.17 %ID/g and the “Positive tumor (LNCaP95) uptake” value ([2]; 4 h after injection) was 1.04 ± 0.14 %ID/g. For the same substance, the “Ratio LNCaP95/PC3” value ([2]; 4 h after injection) was 2.1, the “Ratio LNCaP95/blood” value ([2]; 4 h after injection) was 4.38 and the “Ratio LNCaP95/kidney” value ([2]; 4 h after injection) was 1.00. For the same substance, the “Ratio LNCaP95/liver” value ([2]; 4 h after injection) was 0.25, the “Ratio LNCaP95/muscle” value ([2]; 4 h after injection) was 2.57 and the Small intestine uptake ([2]; 4 h after injection) was 6.25 ± 2.18 %ID/g. The Spleen uptake ([2]; 4 h after injection) was 0.55 ± 0.24 %ID/g, the Stomach uptake ([2]; 4 h after injection) was 0.29 ± 0.19 %ID/g and the Bladder uptake ([2]; 6 h after injection) was 0.39 ± 0.21 %ID/g. It also gave a Blood uptake ([2]; 6 h after injection) of 0.17 ± 0.03 %ID/g, a Bone uptake ([2]; 6 h after injection) of 0.21 ± 0.08 %ID/g and a Brain uptake ([2]; 6 h after injection) of 0.39 ± 0.12 %ID/g. It also gave a Gallbladder uptake ([2]; 6 h after injection) of 9.64 ± 16.02 %ID/g, a Heart uptake ([2]; 6 h after injection) of 0.51 ± 0.13 %ID/g and a Kidney uptake ([2]; 6 h after injection) of 0.65 ± 0.24 %ID/g. For the same substance, the Large intestine uptake ([2]; 6 h after injection) was 47.42 ± 7.58 %ID/g, the Liver uptake ([2]; 6 h after injection) was 2.92 ± 0.94 %ID/g and the Lung uptake ([2]; 6 h after injection) was 0.50 ± 0.25 %ID/g. The Muscle uptake ([2]; 6 h after injection) was 0.24 ±0.09 %ID/g, the “Negative tumor (PC3) uptake” value ([2]; 6 h after injection) was 0.49 ± 0.01 %ID/g and the “Positive tumor (LNCaP95) uptake” value ([2]; 6 h after injection) was 0.52 ± 0.10 %ID/g. For the same substance, the “Ratio LNCaP95/PC3” value ([2]; 6 h after injection) was 1.1, the “Ratio LNCaP95/blood” value ([2]; 6 h after injection) was 3.12 and the “Ratio LNCaP95/kidney” value ([2]; 6 h after injection) was 0.85. The “Ratio LNCaP95/liver” value ([2]; 6 h after injection) was 0.21, the “Ratio LNCaP95/muscle” value ([2]; 6 h after injection) was 2.56 and the Small intestine uptake ([2]; 6 h after injection) was 2.37 ± 1.43 %ID/g. The Spleen uptake ([2]; 6 h after injection) was 0.30 ± 0.18 %ID/g, the Stomach uptake ([2]; 6 h after injection) was 0.19 ± 0.08 %ID/g and the Bladder uptake ([2]; 12 h after injection) was 0.09 ± 0.04 %ID/g. For the same substance, the Blood uptake ([2]; 12 h after injection) was 0.07 ± 0.04 %ID/g, the Bone uptake ([2]; 12 h after injection) was 0.07 ± 0.05 %ID/g and the Brain uptake ([2]; 12 h after injection) was 0.10 ± 0.05 %ID/g. The Gallbladder uptake ([2]; 12 h after injection) was 3.12 ± 0.81 %ID/g, the Heart uptake ([2]; 12 h after injection) was 0.17 ± 0.10 %ID/g and the Kidney uptake ([2]; 12 h after injection) was 0.16 ± 0.08 %ID/g. It also gave a Large intestine uptake ([2]; 12 h after injection) of 27.02 ± 14.89 %ID/g, a Liver uptake ([2]; 12 h after injection) of 1.06 ± 0.48 %ID/g and a Lung uptake ([2]; 12 h after injection) of 0.16 ± 0.08 %ID/g. For the same substance, the Muscle uptake ([2]; 12 h after injection) was 0.06 ± 0.03 %ID/g, the “Negative tumor (PC3) uptake” value ([2]; 12 h after injection) was 0.13 ± 0.13 %ID/g and the “Positive tumor (LNCaP95) uptake” value ([2]; 12 h after injection) was 0.15 ± 0.08 %ID/g. For the same substance, the “Ratio LNCaP95/PC3” value ([2]; 12 h after injection) was 1.2, the “Ratio LNCaP95/blood” value ([2]; 12 h after injection) was 2.22 and the “Ratio LNCaP95/kidney” value ([2]; 12 h after injection) was 0.92. For the same substance, the “Ratio LNCaP95/liver” value ([2]; 12 h after injection) was 0.14, the “Ratio LNCaP95/muscle” value ([2]; 12 h after injection) was 2.98 and the Small intestine uptake ([2]; 12 h after injection) was 2.14 ± 1.49 %ID/g. The Spleen uptake ([2]; 12 h after injection) was 0.07 ± 0.03 %ID/g, the Stomach uptake ([2]; 12 h after injection) was 1.78 ± 1.27 %ID/g and the “decrease in ^123I-EPI-002 accumulation in the LNCaP95 xenograft by blocking” value [3] was 74%. The “LNCaP95 tumor uptake (SPECT)” value ([4]; 2 hours after injection) was 1.09% ± 0.41%, the thyroid uptake ([4]; blocking with EPI-002) was 2.32% ± 0.33% and the thyroid uptake ([4]; unblocked) was “approximately 2.31% ± 0.59%”.

From article PMC4980083 (JCI insight, 2016)
